Reference: ChEMBL document CHEMBL4033658, “Design and expeditious synthesis of organosilanes as potent antivirals targeting multidrug-resistant influenza A viruses” (Eur J Med Chem, 2017)

Each compound was assayed on Influenza A virus (assay: Inhibition of Influenza A virus AM2-S31N mutant proton channel expressed in Xenopus laevis frog oocytes at 100 uM after 2 mins by electrophysiological two-electrode voltage clamp assay).
Type: cell-based

Compound	inhibition
C[Si](C)(C)c1ccc(CNC23CC4CC(CC(C4)C2)C3)nc1	81.3%
CC(C)(C)c1ccc(CNC23CC4CC(CC(C4)C2)C3)cc1	72.6%
C[Si](C)(C)c1ccc(CNC23CC4CC(CC(O)(C4)C2)C3)cc1	86.7%
C[Si](C)(C)c1ccc(CNC23CC4CC(CC(C4)C2)C3)cc1	77.5%
CC(C)[Si](c1ccc(CNC23CC4CC(CC(O)(C4)C2)C3)cc1)(C(C)C)C(C)C	33.6%
CC(C)(C)c1ccc(CNC23CC4CC(CC(O)(C4)C2)C3)cc1	75.4%
C[Si](C)(c1ccccc1)c1ccc(CNC23CC4CC(CC(O)(C4)C2)C3)cc1	84.9%
